Our source for the IC50 values is BindingDB's records for doi:10.1021/jm100157m (University of Arizona, 2010).

The experiment can be described thus: Agonist activity at mu opioid receptor in guinea pig ileum assessed as inhibition of electrically-stimulated muscle contraction.

What is called IC50 is the concentration that inhibits the measured activity by half. As for `CSCC[C@H](NC(=O)[C@H](Cc1ccccc1)NC(=O)CNC(=O)[C@@H](C)NC(=O)[C@@H](N)Cc1ccc(O)cc1)C(=O)N1CCC[C@H]1C(=O)N[C@@H](CC(C)C)C(=O)N[C@@H](Cc1c[nH]c2ccccc12)C(=O)NCc1cc(C(F)(F)F)cc(C(F)(F)F)c1` [Tyr-D-Ala-Gly-Phe-Met-Pro-Leu-Trp-NH-3,5-Bzl(CF 3) 2], the IC50 amounted to 420 nM.
